Measurements as given in patent US6998395B2, “Administration of estradiol metabolites for the treatment or prevention of obesity, metabolic syndrome, diabetes, and vascular and renal disorders” (University of Pittsburg,, priority 2001, dated 2006).
Entries after “also recorded” stand apart in the source; their conditions may differ.

Columns and labels:
Type in all cases: in vivo, rat
[1] = tested on: mesenteric vascular bed of male obese ZSF1 rats; assay: Mesenteric vascular reactivity to acetylcholine and sodium nitroprusside after 26 weeks of treatment; conditions: 10 ug/kg/hour s.c., versus control; for Vasodilation induced by sodium nitroprusside (mesenteric vascular resistance, FIG. 3): sodium nitroprusside 0.5, 1.5, 5.0 ug/min
Description: After 26 weeks of treatment, animals were anesthetized and instrumented for assessment of heart performance, renal hemodynamics and mesenteric vascular reactivity. A PE-50 catheter was advanced via the carotid artery into the left ventricle and connected to a heart-performance analyzer (Micro-Med, Inc., Louisville, Ky.) for continuous measurement of ten time/pressure variables. A PE-50 catheter was inserted into the femoral artery and connected to a blood pressure analyzer (Micro-Med, Inc.) for measurement of arterial blood pressure. A PE-10 catheter was inserted into the left ureter for urine collection, and a flow probe (Transonic Systems, Inc., Ithaca, N.Y.) was placed on the left renal artery for determination of renal blood flow. An infusion of ^14C-inulin (0.035 uCi/20 ul saline/min) was initiated, and after 60 minutes, two 30-minute clearance periods were conducted. A mid-point blood sample (300 ul) for measurement of radioactivity was collected. Plasma and urine ^14C-inulin radioactivity were measured, and renal clearance of ^14C-inulin was calculated. A flow probe was placed on the mesenteric artery for determination of mesenteric blood flow, and a 32-gauge needle was inserted into the mesenteric artery and attached to a Y-connector for dual intramesenteric artery infusions (25 ul/min each). Angiotensin II (30 ng/min) plus methoxamine (3 ug/min) was delivered via one intramesenteric artery infusion line into the mesenteric vascular bed to the mesenteric vascular bed. […] Vascular resistances were calculated as arterial blood pressure divided by blood flow.
All values refer to means±SEM for 9 to 10 animals in each group. Statistical significance was calculated using either an unpaired Student's t-test or a 2-factor analysis of variance (repeated measures) followed by a Fisher's Least Significance Difference test if appropriate. […]

male obese ZSF1 rats [2] = assay: Treatment of male obese ZSF1 rats for 26 weeks with 2-hydroxyestradiol: body weight, food intake, metabolic cage and plasma parameters
Description: Twenty 12-week-old male obese ZSF1 rats (Genetic Models Inc., Indianapolis, Ind.) were used. Obese ZSF1 rats were developed by crossing lean female Zucker Diabetic Fatty rats (ZDF +/fa) and lean male Spontaneously Hypertensive Heart Failure rats (SHHF/Mcc-fa^cp, +/cp). As recently described by Tofovic, S. P., et al., Renal Failure 22: 387 (2000) the disclosure of which is incorporated herein by reference, compared with several different rat strains including Wistar-Kyoto normotensive rats, spontaneously hypertensive rats and obese SHHF/Mcc-fa^cp rats, obese ZSF1 rats have the metabolic syndrome (i.e., hypertension, diabetes and hyperlipidemia), left ventricular dysfunction, and develop nephropathy as characterized by massive proteinuria, abnormal renal histopathology (glomerulosclerosis and severe tubulointerstitial and vascular changes) and reduced glomerular filtration rate. Thus, this rat strain develops obesity, the metabolic syndrome and the end-organ sequelae associated with the metabolic syndrome.
At baseline, animals were placed in metabolic cages and food intake, water intake, urine output and urinary excretion of proteins (bicinchoninic acid method) and glucose (Infinity™ Glucose Reagent, Sigma Diagnostics, St Louis, Mo.) were determined. Next, osmotic mini pumps infusing either vehicle (polyethylene glycol 400, 2.5 ul/hour) or 2-hydroxyestradiol (10 ug/kg/hour) were implanted subcutaneously (random assignment). Minipumps were replaced every 33 days. Metabolic cage studies were repeated 12 and 24 weeks after initiation of treatments. After 9 and 25 weeks of treatment, animals were fasted overnight, and blood samples (tail vein) for measurement of cholesterol were taken. Plasma samples were analyzed in duplicates for cholesterol levels (Sigma Diagnostics, St. Louis, Mo.). After 26 weeks of treatment, animals were fasted overnight, an oral glucose tolerance test was conducted and total glycated hemoglobin levels were determined (Sigma Diagnostics). Plasma glucose levels were measured with the Precision Q.I.D. Blood Glucose Test Strips kit (Medisense, Inc., Bedford, Mass.).
(§1) All values refer to means±SEM for 9 to 10 animals in each group. Statistical significance was calculated using either an unpaired Student's t-test or a 2-factor analysis of variance (repeated measures) followed by a Fisher's Least Significance Difference test if appropriate. The criterion of significance was p<0.05.

male obese ZSF1 rats [3] = assay: Heart performance, arterial blood pressure and renal hemodynamics in anesthetized ZSF1 rats after 26 weeks of treatment; conditions: for Glomerular Filtration Rate / Renal Blood Flow / Renal Vascular Resistance: 26 weeks (approximately 6 months) of treatment; for Glomerular Filtration Rate: 14C-inulin clearance
Description: After 26 weeks of treatment, animals were anesthetized and instrumented for assessment of heart performance, renal hemodynamics and mesenteric vascular reactivity. A PE-50 catheter was advanced via the carotid artery into the left ventricle and connected to a heart-performance analyzer (Micro-Med, Inc., Louisville, Ky.) for continuous measurement of ten time/pressure variables. A PE-50 catheter was inserted into the femoral artery and connected to a blood pressure analyzer (Micro-Med, Inc.) for measurement of arterial blood pressure. A PE-10 catheter was inserted into the left ureter for urine collection, and a flow probe (Transonic Systems, Inc., Ithaca, N.Y.) was placed on the left renal artery for determination of renal blood flow. An infusion of ^14C-inulin (0.035 uCi/20 ul saline/min) was initiated, and after 60 minutes, two 30-minute clearance periods were conducted. A mid-point blood sample (300 ul) for measurement of radioactivity was collected. Plasma and urine ^14C-inulin radioactivity were measured, and renal clearance of ^14C-inulin was calculated. A flow probe was placed on the mesenteric artery for determination of mesenteric blood flow, and a 32-gauge needle was inserted into the mesenteric artery and attached to a Y-connector for dual intramesenteric artery infusions (25 ul/min each). Angiotensin II (30 ng/min) plus methoxamine (3 ug/min) was delivered via one intramesenteric artery infusion line into the mesenteric vascular bed to the mesenteric vascular bed. Next, vascular responses to increasing doses of acetylcholine (0.3, 1.0 and 3.0 ug/min, 5 minutes per dose) and sodium nitroprusside (0.5, 1.5 and 5.0 ug/min, 5 minutes per dose) were elicited by infusing these agents via the other intramesenteric artery infusion line into the mesenteric vascular bed. Vascular resistances were calculated as arterial blood pressure divided by blood flow.
as §1

[4] = 10 ug/kg/hour s.c., 12 weeks of treatment
[5] = 10 ug/kg/hour s.c., 24 weeks of treatment
[6] = Table 1, after approximately 6 months of treatment
[7] = anesthetized, listed as 2-Hydroxyestradiol
[8] = Table 2, after approximately 6 months of treatment

C[C@]12CC[C@@H]3c4cc(O)c(O)cc4CC[C@H]3[C@@H]1CC[C@@H]2O [2-hydroxyestradiol, estra-1,3,5 (10)-triene-2,3,1 7-triol (17β)]
Decreases in mesenteric vascular resistance induced by acetylcholine (FIG. 2) ([1]; acetylcholine 0.3, 1.0, 3.0 ug/min): greater | Vasodilation induced by sodium nitroprusside (mesenteric vascular resistance, FIG. 3) [1]: non-significant effect | Vasodilation induced by sodium nitroprusside (mesenteric vascular resistance, FIG. 3) ([1]; listed as 2-Hydroxyestradiol): only slightly (non-significantly) enhanced | Body weight (male obese ZSF1 rats [2]; 10 ug/kg/hour s.c. osmotic minipump, 12 weeks of treatment, mean±SEM): 545±13 grams | Body weight (male obese ZSF1 rats [2]; 10 ug/kg/hour s.c. osmotic minipump, 26 weeks of treatment, mean±SEM): 571±13 grams | Hypercholesterolemia (plasma cholesterol) (male obese ZSF1 rats [2]; 10 ug/kg/hour s.c., 9 weeks of treatment, fasted overnight): 151±9 mg cholesterol/100 ml | Food intake (male obese ZSF1 rats [2]; [4]): 26.4±1.3 grams/day | Glucosuria (male obese ZSF1 rats [2]; [4]): 0.2±0.2 grams glucose/day | Polydipsia (male obese ZSF1 rats [2]; [4]): 40.1±4.0 mls of water consumed/day | Polyuria (male obese ZSF1 rats [2]; [4]): 23.6±2.4 mls of urine/day | Food intake (male obese ZSF1 rats [2]; [5]): 36.6±0.9 grams/day | Glucosuria (male obese ZSF1 rats [2]; [5]): 1.7±0.5 grams glucose/day | Polydipsia (male obese ZSF1 rats [2]; [5]): 67.4±4.5 mls of water consumed | Polyuria (male obese ZSF1 rats [2]; [5]): 45.6±3.8 mls of urine/day | Hypercholesterolemia (plasma cholesterol) (male obese ZSF1 rats [2]; 10 ug/kg/hour s.c., 25 weeks of treatment, fasted overnight): 247±28 mg cholesterol/100 ml | Glycated hemoglobin (male obese ZSF1 rats [2]; 10 ug/kg/hour s.c., 26 weeks into the study): 3.8±0.7% | Oral glucose tolerance test: plasma glucose 2 hours after an oral dose of 2 grams of glucose per kg body weight (male obese ZSF1 rats [2]; 10 ug/kg/hour s.c., 26 weeks of treatment, fasted overnight): 265±13 mg/100 ml | Progression of proteinuria (urinary protein excretion, FIG. 1) (male obese ZSF1 rats [2]; 10 ug/kg/hour s.c., baseline, 12 and 24 weeks, versus vehicle): significant (p<0.001) effect of time and treatment; also recorded: attenuated the progression of proteinuria | Food intake (male obese ZSF1 rats [2]; [6]): 36.6 ± 0.9 grams | Glycated hemoglobin (male obese ZSF1 rats [2]; [6]): 3.8 ± 0.7% | Plasma Cholesterol (male obese ZSF1 rats [2]; [6]): 247 ± 28 mg/100 ml | Plasma Glucose 2 Hours After Oral Glucose Load of 2 g/kg (male obese ZSF1 rats [2]; [6]): 265 ± 13 mg/100 ml | Urinary Glucose Excretion (male obese ZSF1 rats [2]; [6]): 1.7 ± 0.5 grams/day | Urinary Protein Excretion (male obese ZSF1 rats [2]; [6]): 333 ± 21 mg/day | Urine Volume (male obese ZSF1 rats [2]; [6]): 45.6 ± 3.8 mL/day | Water Intake (male obese ZSF1 rats [2]; [6]): 67.4 ± 4.5 mL/day | Body weight (male obese ZSF1 rats [2]; Table 1, after approximately 6 months of treatment, mean ± SEM): 571 ± 11 grams | Mean arterial blood pressure (male obese ZSF1 rats [3]; 10 ug/kg/hour s.c., 26 weeks of treatment, anesthetized): 122±5 mm Hg | Effects on heart performance in situ (male obese ZSF1 rats [3]; 10 ug/kg/hour s.c., chronic treatment (26 weeks), versus control): no effects | Glomerular Filtration Rate (male obese ZSF1 rats [3]): did not affect | Glomerular Filtration Rate (male obese ZSF1 rats [3]; listed as 2-Hydroxyestradiol): 0.76 ± 0.09 ml/min/gram kidney | Renal Blood Flow (male obese ZSF1 rats [3]; anesthetized): did not affect | Renal Vascular Resistance (male obese ZSF1 rats [3]; anesthetized): did not affect | Renal Blood Flow (male obese ZSF1 rats [3]; [7]): 3.3 ± 0.6 ml/min/gram kidney | Renal Vascular Resistance (male obese ZSF1 rats [3]; [7]): 42 ± 7 mm Hg/ml/min/gram kidney | +dP/dtmax (male obese ZSF1 rats [3]; [8]): 11,805 ± 943 mm Hg/sec | +dP/dtmax/Ventricular Peak Systolic Pressure (male obese ZSF1 rats [3]; [8]): 69.9 ± 2.5 s⁻¹ | Duration of Contraction (male obese ZSF1 rats [3]; [8]): 38.8 ± 3.5 ms | Duration of Relaxation (male obese ZSF1 rats [3]; [8]): 96.3 ± 6.3 ms | Half-Time of Ventricular Relaxation (male obese ZSF1 rats [3]; [8]): 49.1 ± 3.6 ms | Heart Rate (male obese ZSF1 rats [3]; [8]): 352 ± 9 beats/min | Heart Rate × Ventricular Peak Systolic Pressure (male obese ZSF1 rats [3]; [8]): 60,949 ± 4,237 [beats/min] × mm Hg | Mean Blood Pressure (male obese ZSF1 rats [3]; [8]): 122 ± 5 mm Hg | Time Constant of Ventricular Relaxation (male obese ZSF1 rats [3]; [8]): 16.7 ± 1.9 ms | Ventricular End Diastolic Pressure (male obese ZSF1 rats [3]; [8]): 4.2 ± 1.0 mm Hg | Ventricular Minimum Diastolic Pressure (male obese ZSF1 rats [3]; [8]): −1.4 ± 1.1 mm Hg | Ventricular Peak Systolic Pressure (male obese ZSF1 rats [3]; [8]): 172 ± 9 mm Hg | −dP/dtmax (male obese ZSF1 rats [3]; [8]): 6853 ± 382 mm Hg/sec
